# Test system: MCH receptors
# Experiment: MCH receptor activity class (method not given)
# Conditions: class 1-3 by percent of control at 10^-7 M or IC50
row,SMILES,class
1,CN(C)c1nc(N[C@H]2CC[C@@H](NC(=O)COc3cccc(Cl)c3)CC2)nc2c1CCCC2 [compound 569],1 (Class 1: The value of percent of control at 10^−7 M was less than 40% or the value of IC50 was less than 50 nM.)
2,Cc1onc(-c2c(Cl)cccc2Cl)c1C(=O)N[C@H]1CC[C@@H](Nc2nc3c(c(N(C)C)n2)CCCC3)CC1 [compound 570],1 (Class 1: The value of percent of control at 10^−7 M was less than 40% or the value of IC50 was less than 50 nM.)
3,CN(C)c1nc(N[C@H]2CC[C@@H](NC(=O)c3cccnc3Oc3ccccc3)CC2)nc2c1CCCC2 [compound 571],2 (Class 2: The value of percent of control at 10^−7 M was from 40% to 60% or the value of IC′50 was from 50 nM to 200 nM.)
4,CN(C)c1nc(N[C@H]2CC[C@@H](NC(=O)c3cccnc3Sc3ccccc3)CC2)nc2c1CCCC2 [compound 572],3 (Class 3 The value of percent of control at 10^−7 M was more than 60% or the value of IC50 was more than 200 nM.)
5,Cc1ccc(Oc2ncccc2C(=O)N[C@H]2CC[C@@H](Nc3nc4c(c(N(C)C)n3)CCCC4)CC2)cc1 [compound 573],1 (Class 1: The value of percent of control at 10^−7 M was less than 40% or the value of IC50 was less than 50 nM.)
6,CCCN(CCC)S(=O)(=O)c1ccc(C(=O)N[C@H]2CC[C@@H](Nc3nc4c(c(N(C)C)n3)CCCC4)CC2)cc1 [compound 574],3 (Class 3 The value of percent of control at 10^−7 M was more than 60% or the value of IC50 was more than 200 nM.)
7,CN(C)c1nc(N[C@H]2CC[C@@H](NC(=O)C(C)(C)Oc3ccc(Cl)cc3)CC2)nc2c1CCCC2 [compound 575],3 (Class 3 The value of percent of control at 10^−7 M was more than 60% or the value of IC50 was more than 200 nM.)
8,CN(C)c1nc(N[C@H]2CC[C@@H](NC(=O)c3cc(-c4ccc(Cl)cc4)oc3C(F)(F)F)CC2)nc2c1CCCC2 [compound 576],3 (Class 3 The value of percent of control at 10^−7 M was more than 60% or the value of IC50 was more than 200 nM.)
9,CN(C)c1nc(N[C@H]2CC[C@@H](NC(=O)c3cc(C(C)(C)C)nn3Cc3ccc(Cl)cc3Cl)CC2)nc2c1CCCC2 [compound 577],3 (Class 3 The value of percent of control at 10^−7 M was more than 60% or the value of IC50 was more than 200 nM.)
10,CN(C)c1nc(N[C@H]2CC[C@@H](NC(=O)C3=Cc4cc(Cl)ccc4OC3)CC2)nc2c1CCCC2 [compound 578],3 (Class 3 The value of percent of control at 10^−7 M was more than 60% or the value of IC50 was more than 200 nM.)
11,CN(C)c1nc(N[C@H]2CC[C@@H](NC(=O)c3ccc(OC(F)(F)F)c(Cl)c3)CC2)nc2c1CCCC2 [compound 579],3 (Class 3 The value of percent of control at 10^−7 M was more than 60% or the value of IC50 was more than 200 nM.)
12,Cc1cc(=O)oc2c(OCC(=O)N[C@H]3CC[C@@H](Nc4nc5c(c(N(C)C)n4)CCCC5)CC3)cccc12 [compound 580],3 (Class 3 The value of percent of control at 10^−7 M was more than 60% or the value of IC50 was more than 200 nM.)
13,CN(C)c1nc(N[C@H]2CC[C@@H](NC(=O)c3csc(-c4cccs4)n3)CC2)nc2c1CCCC2 [compound 581],2 (Class 2: The value of percent of control at 10^−7 M was from 40% to 60% or the value of IC′50 was from 50 nM to 200 nM.)
14,COc1cccc(C(=O)NC[C@H]2CC[C@@H](Nc3nc4c(c(N(C)C)n3)CCCC4)CC2)c1 [compound 582],3 (Class 3 The value of percent of control at 10^−7 M was more than 60% or the value of IC50 was more than 200 nM.)
15,"CN(C)c1nc(N[C@H]2CC[C@@H](CNC(=O)c3cccc(Br)c3)CC2)nc2c1CCCC2 [compound 583, 3-bromo-N-[(cis-4-{[4-(dimethylamino)-5,6,7,8-tetrahydroquinazolin-2-yl]amino}cyclohexyl)methyl]benzamide]",2 (Class 2: The value of percent of control at 10^−7 M was from 40% to 60% or the value of IC′50 was from 50 nM to 200 nM.)
16,CN(C)c1nc(N[C@H]2CC[C@@H](CNC(=O)c3ccc(Br)cc3)CC2)nc2c1CCCC2 [compound 584],3 (Class 3 The value of percent of control at 10^−7 M was more than 60% or the value of IC50 was more than 200 nM.)
17,CN(C)c1nc(N[C@H]2CC[C@@H](CNC(=O)c3ccc4nonc4c3)CC2)nc2c1CCCC2 [compound 585],3 (Class 3 The value of percent of control at 10^−7 M was more than 60% or the value of IC50 was more than 200 nM.)

row,SMILES,class
1,CN(C)c1nc(N[C@H]2CC[C@@H](CNC(=O)c3cccc(Cl)c3)CC2)nc2c1CCCC2 [compound 586],3 (Class 3 The value of percent of control at 10^−7 M was more than 60% or the value of IC50 was more than 200 nM.)
2,CN(C)c1nc(N[C@H]2CC[C@@H](CNC(=O)c3ccc(Cl)cc3)CC2)nc2c1CCCC2 [compound 587],3 (Class 3 The value of percent of control at 10^−7 M was more than 60% or the value of IC50 was more than 200 nM.)
3,CN(C)c1nc(N[C@H]2CC[C@@H](CNC(=O)/C=C/c3ccccc3)CC2)nc2c1CCCC2 [compound 588],3 (Class 3 The value of percent of control at 10^−7 M was more than 60% or the value of IC50 was more than 200 nM.)
4,CN(C)c1nc(N[C@H]2CC[C@@H](CNC(=O)c3ccc(Cl)c([N+](=O)[O-])c3)CC2)nc2c1CCCC2 [compound 589],3 (Class 3 The value of percent of control at 10^−7 M was more than 60% or the value of IC50 was more than 200 nM.)
5,CN(C)c1nc(N[C@H]2CC[C@@H](CNC(=O)Cc3ccc(Cl)cc3)CC2)nc2c1CCCC2 [compound 590],3 (Class 3 The value of percent of control at 10^−7 M was more than 60% or the value of IC50 was more than 200 nM.)
6,CN(C)c1nc(N[C@H]2CC[C@@H](CNC(=O)c3cccc(C#N)c3)CC2)nc2c1CCCC2 [compound 591],3 (Class 3 The value of percent of control at 10^−7 M was more than 60% or the value of IC50 was more than 200 nM.)
7,CN(C)c1nc(N[C@H]2CC[C@@H](CNC(=O)c3cc(Cl)cc(Cl)c3)CC2)nc2c1CCCC2 [compound 592],3 (Class 3 The value of percent of control at 10^−7 M was more than 60% or the value of IC50 was more than 200 nM.)
8,CN(C)c1nc(N[C@H]2CC[C@@H](CNC(=O)c3ccc(Cl)c(Cl)c3)CC2)nc2c1CCCC2 [compound 593],3 (Class 3 The value of percent of control at 10^−7 M was more than 60% or the value of IC50 was more than 200 nM.)
9,CN(C)c1nc(N[C@H]2CC[C@@H](CNC(=O)C(c3ccccc3)c3ccccc3)CC2)nc2c1CCCC2 [compound 594],3 (Class 3 The value of percent of control at 10^−7 M was more than 60% or the value of IC50 was more than 200 nM.)
10,CN(C)c1nc(N[C@H]2CC[C@@H](CNC(=O)c3ccc(F)c(F)c3)CC2)nc2c1CCCC2 [compound 595],3 (Class 3 The value of percent of control at 10^−7 M was more than 60% or the value of IC50 was more than 200 nM.)
11,CN(C)c1nc(N[C@H]2CC[C@@H](CNC(=O)c3cc(F)cc(F)c3)CC2)nc2c1CCCC2 [compound 596],3 (Class 3 The value of percent of control at 10^−7 M was more than 60% or the value of IC50 was more than 200 nM.)
12,COc1ccc(OC)c(CC(=O)NC[C@H]2CC[C@@H](Nc3nc4c(c(N(C)C)n3)CCCC4)CC2)c1 [compound 597],3 (Class 3 The value of percent of control at 10^−7 M was more than 60% or the value of IC50 was more than 200 nM.)
13,CCSc1ncccc1C(=O)NC[C@H]1CC[C@@H](Nc2nc3c(c(N(C)C)n2)CCCC3)CC1 [compound 598],1 (Class 1: The value of percent of control at 10^−7 M was less than 40% or the value of IC50 was less than 50 nM.)
14,CN(C)c1nc(N[C@H]2CC[C@@H](CNC(=O)c3ccc(F)cc3)CC2)nc2c1CCCC2 [compound 599],3 (Class 3 The value of percent of control at 10^−7 M was more than 60% or the value of IC50 was more than 200 nM.)
15,CN(C)c1nc(N[C@H]2CC[C@@H](CNC(=O)c3cc(F)cc(C(F)(F)F)c3)CC2)nc2c1CCCC2 [compound 600],3 (Class 3 The value of percent of control at 10^−7 M was more than 60% or the value of IC50 was more than 200 nM.)
16,CN(C)c1nc(N[C@H]2CC[C@@H](CNC(=O)c3cc(F)c(Cl)cc3Cl)CC2)nc2c1CCCC2 [compound 601],3 (Class 3 The value of percent of control at 10^−7 M was more than 60% or the value of IC50 was more than 200 nM.)

# Same assay, conditions: class by percent of control at 10^-7 M or IC50
row,SMILES,class
1,CCCCCC(=O)NC[C@H]1CC[C@@H](Nc2nc3c(c(N(C)C)n2)CCCC3)CC1 [compound 602],3 (Class 3 The value of percent of control at 10^−7 M was more than 60% or the value of IC50 was more than 200 nM.)
2,CN(C)c1nc(N[C@H]2CC[C@@H](CNC(=O)c3ccc(I)cc3)CC2)nc2c1CCCC2 [compound 603],3 (Class 3 The value of percent of control at 10^−7 M was more than 60% or the value of IC50 was more than 200 nM.)
3,CSc1ncccc1C(=O)NC[C@H]1CC[C@@H](Nc2nc3c(c(N(C)C)n2)CCCC3)CC1 [compound 604],3 (Class 3 The value of percent of control at 10^−7 M was more than 60% or the value of IC50 was more than 200 nM.)
4,Cc1ccc(C(=O)NC[C@H]2CC[C@@H](Nc3nc4c(c(N(C)C)n3)CCCC4)CC2)cc1[N+](=O)[O-] [compound 605],3 (Class 3 The value of percent of control at 10^−7 M was more than 60% or the value of IC50 was more than 200 nM.)
5,CN(C)c1nc(N[C@H]2CC[C@@H](CNC(=O)c3cccc([N+](=O)[O-])c3)CC2)nc2c1CCCC2 [compound 606],3 (Class 3 The value of percent of control at 10^−7 M was more than 60% or the value of IC50 was more than 200 nM.)
6,CN(C)c1nc(N[C@H]2CC[C@@H](CNC(=O)Cc3ccccc3)CC2)nc2c1CCCC2 [compound 607],3 (Class 3 The value of percent of control at 10^−7 M was more than 60% or the value of IC50 was more than 200 nM.)
7,CN(C)c1nc(N[C@H]2CC[C@@H](CNC(=O)C3C[C@H]3c3ccccc3)CC2)nc2c1CCCC2 (some centres unmarked) [compound 608],3 (Class 3 The value of percent of control at 10^−7 M was more than 60% or the value of IC50 was more than 200 nM.)
8,CN(C)c1nc(N[C@H]2CC[C@@H](CNC(=O)c3ccc4c(c3)OCO4)CC2)nc2c1CCCC2 [compound 609],3 (Class 3 The value of percent of control at 10^−7 M was more than 60% or the value of IC50 was more than 200 nM.)

# Source: US20050197350A1, “Novel quinoline, tetrahydroquinazoline, and pyrimidine derivatives and methods of treatment related to the use thereof” (TAISHO PHARMACEUTICAL CO., LTD., priority 2003, published 2005)
